From ChEMBL document CHEMBL1143059, “Structure-based design, synthesis and preliminary evaluation of selective inhibitors of dihydrofolate reductase from Mycobacterium tuberculosis” (Bioorg Med Chem, 2007) come the findings set out here.

Assay [1] addresses T1, Dihydrofolate reductase (Saccharomyces cerevisiae S288c) (UniProt P07807).
T1 sequence (whole entry): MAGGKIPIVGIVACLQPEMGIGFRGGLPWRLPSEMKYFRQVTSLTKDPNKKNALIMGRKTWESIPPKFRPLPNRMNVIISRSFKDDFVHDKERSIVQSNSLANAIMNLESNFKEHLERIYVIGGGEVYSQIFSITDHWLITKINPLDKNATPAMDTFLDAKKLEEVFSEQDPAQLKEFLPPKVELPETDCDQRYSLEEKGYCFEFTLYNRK
Description: Inhibition of yeast DHFR expressed in Saccharomyces cerevisiae TB5 assessed as yeast growth inhibition by after 3 days by radial spoke assay

For assay [2], the target named is T2, Dihydrofolate reductase (Mycobacterium tuberculosis) (UniProt P9WNX1).
T2 sequence (whole entry): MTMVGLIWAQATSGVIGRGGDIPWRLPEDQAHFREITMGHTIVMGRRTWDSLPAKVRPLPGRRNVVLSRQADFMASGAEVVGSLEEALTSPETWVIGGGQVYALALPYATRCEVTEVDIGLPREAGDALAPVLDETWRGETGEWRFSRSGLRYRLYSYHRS
Description: Inhibition of Mycobacterium tuberculosis DHFR expressed in Saccharomyces cerevisiae TB5 assessed as yeast growth inhibition after 3 days by radial spoke assay

Assay [3] deals with T3, Dihydrofolate reductase (Homo sapiens) (UniProt P00374).
T3 sequence (whole entry): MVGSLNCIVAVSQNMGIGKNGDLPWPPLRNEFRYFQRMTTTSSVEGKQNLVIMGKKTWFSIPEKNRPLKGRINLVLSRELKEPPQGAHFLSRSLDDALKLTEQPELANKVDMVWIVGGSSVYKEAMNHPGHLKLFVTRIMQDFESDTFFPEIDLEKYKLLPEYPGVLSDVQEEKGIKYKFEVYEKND
Description: Inhibition of human DHFR expressed in Saccharomyces cerevisiae TB5 assessed as yeast growth inhibition after 3 days by radial spoke assay

For the compound `Nc1nc(N)c(-c2ccccc2)c(CC[C@@H](O)[C@@H](O)CO)n1`, the IZ was found to be 6 mm in assay [1], 11 mm in assay [2] and 6 mm in assay [3].
Regarding `Nc1nc(N)c(-c2ccccc2)c([C@H](O)[C@H](O)CO)n1`, the IZ in assay [1], in assay [2] and in assay [3] was 5 mm in each case.
For `Nc1nc(N)c(-c2ccc(Br)cc2)c(CC[C@H](O)[C@@H](O)CO)n1`, the IZ came out at 6 mm in assay [1], 8 mm in assay [2] and 5 mm in assay [3].
Take `Nc1nc(N)c(-c2ccc(Cl)c(Cl)c2)c([C@H](O)[C@H](O)CO)n1`: the figures for the IZ in assay [1], in assay [2] and in assay [3] were 7 mm, 8 mm and 8 mm, respectively.
On to `Nc1nc(N)c(-c2ccc(Br)cc2)c(CC[C@@H](O)[C@@H](O)CO)n1`, for which the IZ in assay [1] was determined as 8 mm; in assay [2], 7 mm; in assay [3], 6 mm.
For `Nc1nc(N)c(-c2ccc(Br)cc2)c([C@H](O)[C@H](O)CO)n1` the same measures were 5 mm, 5 mm and 5 mm.
For `Nc1nc(N)c(-c2ccc(Cl)cc2)c(CC[C@H](O)[C@@H](O)CO)n1` the same measures were 6 mm, 7 mm and 7 mm.
For `Nc1nc(N)c(-c2ccc(Cl)cc2)c(CC[C@@H](O)[C@@H](O)CO)n1`, in that order: 7 mm, 9 mm and 7 mm.
As to `Nc1nc(N)c(-c2ccc(Cl)cc2)c([C@H](O)[C@H](O)CO)n1`, the IZ in assay [1], in assay [2] and in assay [3] was 5 mm in each case.
Turning to `Nc1nc(N)c(-c2ccc(Cl)cc2)c(CCCCCO)n1`, the IZ in assay [1], in assay [2] and in assay [3] was 8 mm in each case.
In the case of `Nc1nc(N)c(-c2ccc(Br)cc2)c(CCCCCO)n1`, the IZ turned out to be 9 mm in assay [1], 8 mm in assay [2] and 8 mm in assay [3].
In the case of `Nc1nc(N)c(-c2ccc(Cl)c(Cl)c2)c(CC[C@@H](O)[C@@H](O)CO)n1`, the IZ in assay [1], in assay [2] and in assay [3] was 8 mm in each case.
In the case of `Nc1nc(N)c(-c2ccccc2)c(CCCCCO)n1`, the IZ in assay [1] was found to be 9 mm; in assay [2], 7 mm; in assay [3], 7 mm.
For the compound `CCc1nc(N)nc(N)c1-c1cccc(Cl)c1`, the IZ in assay [1] stood at 5 mm; in assay [2], 5 mm; in assay [3], 6 mm.
As to `Nc1nc(N)c(-c2ccc(Cl)c(Cl)c2)c(CCCCCO)n1`, the IZ in assay [1], in assay [2] and in assay [3] was 9 mm in each case.
For `Nc1ncc(-c2ccccc2)c(CCc2ccccc2)n1`, the IZ in assay [1], in assay [2] and in assay [3] was 5 mm each time.
On to `Nc1nc(N)c(-c2ccccc2)c(CC[C@H](O)[C@@H](O)CO)n1`, for which the IZ in assay [1] worked out at 8 mm; in assay [2] it was 9 mm; in assay [3] it was 8 mm.
